Source: patent publication EP0055702B1, “Antithrombotic treatment” (priority 1980, dated 1982)
Values joined by “and” are separate entries in the source; they are usually repeats but may differ in a detail not shown here. Equal entries are not always repeated.

Assays:
[1] = test system: platelet thrombus formation on damaged aortic wall; experiment: Indium-111 platelet labelling technique in rabbits; assay type: in vivo; conditions: intravenous 72.80 mg/kg
Protocol: In medicine, arterial thrombosis is diagnosable, for example, by clinical manifestations, by arteriography and, recently, by an indium 111 platelet labelling technique (see, for example, the article entitled "Differential Effects of Two Doses of Aspirin on Platelet-Vessel Wall Interaction In Vivo" by K. K. Wu et al being published in the Journal of Clinical Investigation, August, 1981).
Sodium bisulphite was evaluated as an anti-thrombotic agent in vivo using the indium-111 platelet labelling technique in rabbits (see the Wu et al article above cited). The material was administered by intravenous injection (72.80 milligrams per kilogram of animal body weight).

[2] = test system: human, rabbit and rat plasma; experiment: PTT (partial thromboplastin time) in plasma in vitro, Example 3; assay type: biochemical; conditions: for PTT (seconds) Exp. 1 A / PTT (seconds) Exp. 2 A: active agent 0.5/ml, control
From the text: Sodium, potassium and ammonium bisulphites are found to prolong PT and PTT in a dose-related fashion.
The evaluation procedure used is that described in "Human Blood Coagulation, Haemostasis and Thrombosis", edited by Rosemary Biggs, published by Blackwell Scientific Publications, Oxford, England (2nd Edition), pages 670-705, 1976.

human plasma = experiment: Thrombin Time, Example 4; assay type: biochemical; conditions: Control 12.00
From the text: (§1) The evaluation procedure used is that described in "Human Blood Coagulation, Haemostasis and Thrombosis", edited by Rosemary Biggs, published by Blackwell Scientific Publications, Oxford, England (2nd Edition), pages 670-705, 1976. […]

Factor V = molecular target: T1, Factor V (Homo sapiens, UniProt P12259); experiment: Factor V assay, Example 4; assay type: biochemical; conditions: Control 75
T1 construct: from tissue; host or cells: human plasma
T1 sequence (P12259 29-2224): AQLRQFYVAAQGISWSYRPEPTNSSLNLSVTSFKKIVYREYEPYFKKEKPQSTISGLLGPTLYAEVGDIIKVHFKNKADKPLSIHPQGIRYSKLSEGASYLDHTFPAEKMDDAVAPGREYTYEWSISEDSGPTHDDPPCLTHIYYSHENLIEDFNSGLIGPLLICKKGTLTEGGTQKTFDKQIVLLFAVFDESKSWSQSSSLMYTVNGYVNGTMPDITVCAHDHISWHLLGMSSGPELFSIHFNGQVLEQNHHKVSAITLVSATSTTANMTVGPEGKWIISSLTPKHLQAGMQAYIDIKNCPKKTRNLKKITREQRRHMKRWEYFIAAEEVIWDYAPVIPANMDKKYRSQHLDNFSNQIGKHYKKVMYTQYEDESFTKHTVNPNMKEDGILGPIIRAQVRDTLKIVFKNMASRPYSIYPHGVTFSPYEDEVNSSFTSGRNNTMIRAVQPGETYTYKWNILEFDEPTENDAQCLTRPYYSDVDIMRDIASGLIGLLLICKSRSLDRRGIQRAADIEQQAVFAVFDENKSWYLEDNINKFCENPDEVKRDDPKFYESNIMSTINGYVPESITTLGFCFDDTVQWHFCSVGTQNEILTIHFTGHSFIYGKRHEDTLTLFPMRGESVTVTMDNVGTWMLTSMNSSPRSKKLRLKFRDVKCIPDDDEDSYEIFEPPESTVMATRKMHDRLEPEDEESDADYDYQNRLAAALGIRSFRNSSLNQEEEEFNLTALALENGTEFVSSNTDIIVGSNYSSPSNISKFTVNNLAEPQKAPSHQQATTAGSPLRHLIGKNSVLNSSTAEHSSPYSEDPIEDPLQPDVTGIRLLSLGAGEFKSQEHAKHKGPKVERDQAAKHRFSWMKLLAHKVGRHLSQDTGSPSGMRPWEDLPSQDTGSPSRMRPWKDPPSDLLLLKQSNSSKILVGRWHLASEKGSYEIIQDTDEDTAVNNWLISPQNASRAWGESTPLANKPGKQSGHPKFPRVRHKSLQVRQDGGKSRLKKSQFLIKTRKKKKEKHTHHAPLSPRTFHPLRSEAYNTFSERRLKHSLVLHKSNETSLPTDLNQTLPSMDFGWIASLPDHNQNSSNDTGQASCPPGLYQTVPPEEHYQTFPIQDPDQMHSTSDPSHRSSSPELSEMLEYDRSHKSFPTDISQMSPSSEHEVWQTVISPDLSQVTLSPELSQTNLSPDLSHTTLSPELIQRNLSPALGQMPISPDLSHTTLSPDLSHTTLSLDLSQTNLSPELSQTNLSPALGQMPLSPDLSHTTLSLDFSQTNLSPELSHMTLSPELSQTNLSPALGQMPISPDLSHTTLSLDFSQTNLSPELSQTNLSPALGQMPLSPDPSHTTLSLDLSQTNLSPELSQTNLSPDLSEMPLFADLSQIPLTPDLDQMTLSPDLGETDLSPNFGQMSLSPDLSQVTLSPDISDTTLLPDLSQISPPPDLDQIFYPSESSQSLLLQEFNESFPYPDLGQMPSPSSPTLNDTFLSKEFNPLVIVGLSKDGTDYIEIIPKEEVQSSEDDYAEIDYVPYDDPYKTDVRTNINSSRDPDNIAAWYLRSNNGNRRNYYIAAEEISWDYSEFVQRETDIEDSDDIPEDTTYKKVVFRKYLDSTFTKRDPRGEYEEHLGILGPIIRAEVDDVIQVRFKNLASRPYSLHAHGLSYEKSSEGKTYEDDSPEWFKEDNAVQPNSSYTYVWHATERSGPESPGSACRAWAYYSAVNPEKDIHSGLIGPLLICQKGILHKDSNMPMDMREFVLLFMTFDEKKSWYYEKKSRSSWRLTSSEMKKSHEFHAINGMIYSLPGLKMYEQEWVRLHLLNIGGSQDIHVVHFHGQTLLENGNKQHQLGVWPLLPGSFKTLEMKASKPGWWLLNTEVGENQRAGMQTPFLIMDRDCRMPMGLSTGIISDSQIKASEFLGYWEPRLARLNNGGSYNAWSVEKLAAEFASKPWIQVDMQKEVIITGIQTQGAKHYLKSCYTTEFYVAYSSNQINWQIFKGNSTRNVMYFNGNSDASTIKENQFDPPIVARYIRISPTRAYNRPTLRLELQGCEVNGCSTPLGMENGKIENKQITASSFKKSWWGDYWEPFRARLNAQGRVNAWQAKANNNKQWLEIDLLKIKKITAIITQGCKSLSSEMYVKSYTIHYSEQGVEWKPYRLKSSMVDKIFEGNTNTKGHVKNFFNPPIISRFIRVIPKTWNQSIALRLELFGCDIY
From the text: as §1

F VIII = molecular target: T2, F VIII (Homo sapiens, UniProt P00451); experiment: Factor VIII assay, Example 4; assay type: biochemical; conditions: for F VIII: Control 57
T2 construct: from tissue; host or cells: human plasma
T2 sequence (P00451 20-2351): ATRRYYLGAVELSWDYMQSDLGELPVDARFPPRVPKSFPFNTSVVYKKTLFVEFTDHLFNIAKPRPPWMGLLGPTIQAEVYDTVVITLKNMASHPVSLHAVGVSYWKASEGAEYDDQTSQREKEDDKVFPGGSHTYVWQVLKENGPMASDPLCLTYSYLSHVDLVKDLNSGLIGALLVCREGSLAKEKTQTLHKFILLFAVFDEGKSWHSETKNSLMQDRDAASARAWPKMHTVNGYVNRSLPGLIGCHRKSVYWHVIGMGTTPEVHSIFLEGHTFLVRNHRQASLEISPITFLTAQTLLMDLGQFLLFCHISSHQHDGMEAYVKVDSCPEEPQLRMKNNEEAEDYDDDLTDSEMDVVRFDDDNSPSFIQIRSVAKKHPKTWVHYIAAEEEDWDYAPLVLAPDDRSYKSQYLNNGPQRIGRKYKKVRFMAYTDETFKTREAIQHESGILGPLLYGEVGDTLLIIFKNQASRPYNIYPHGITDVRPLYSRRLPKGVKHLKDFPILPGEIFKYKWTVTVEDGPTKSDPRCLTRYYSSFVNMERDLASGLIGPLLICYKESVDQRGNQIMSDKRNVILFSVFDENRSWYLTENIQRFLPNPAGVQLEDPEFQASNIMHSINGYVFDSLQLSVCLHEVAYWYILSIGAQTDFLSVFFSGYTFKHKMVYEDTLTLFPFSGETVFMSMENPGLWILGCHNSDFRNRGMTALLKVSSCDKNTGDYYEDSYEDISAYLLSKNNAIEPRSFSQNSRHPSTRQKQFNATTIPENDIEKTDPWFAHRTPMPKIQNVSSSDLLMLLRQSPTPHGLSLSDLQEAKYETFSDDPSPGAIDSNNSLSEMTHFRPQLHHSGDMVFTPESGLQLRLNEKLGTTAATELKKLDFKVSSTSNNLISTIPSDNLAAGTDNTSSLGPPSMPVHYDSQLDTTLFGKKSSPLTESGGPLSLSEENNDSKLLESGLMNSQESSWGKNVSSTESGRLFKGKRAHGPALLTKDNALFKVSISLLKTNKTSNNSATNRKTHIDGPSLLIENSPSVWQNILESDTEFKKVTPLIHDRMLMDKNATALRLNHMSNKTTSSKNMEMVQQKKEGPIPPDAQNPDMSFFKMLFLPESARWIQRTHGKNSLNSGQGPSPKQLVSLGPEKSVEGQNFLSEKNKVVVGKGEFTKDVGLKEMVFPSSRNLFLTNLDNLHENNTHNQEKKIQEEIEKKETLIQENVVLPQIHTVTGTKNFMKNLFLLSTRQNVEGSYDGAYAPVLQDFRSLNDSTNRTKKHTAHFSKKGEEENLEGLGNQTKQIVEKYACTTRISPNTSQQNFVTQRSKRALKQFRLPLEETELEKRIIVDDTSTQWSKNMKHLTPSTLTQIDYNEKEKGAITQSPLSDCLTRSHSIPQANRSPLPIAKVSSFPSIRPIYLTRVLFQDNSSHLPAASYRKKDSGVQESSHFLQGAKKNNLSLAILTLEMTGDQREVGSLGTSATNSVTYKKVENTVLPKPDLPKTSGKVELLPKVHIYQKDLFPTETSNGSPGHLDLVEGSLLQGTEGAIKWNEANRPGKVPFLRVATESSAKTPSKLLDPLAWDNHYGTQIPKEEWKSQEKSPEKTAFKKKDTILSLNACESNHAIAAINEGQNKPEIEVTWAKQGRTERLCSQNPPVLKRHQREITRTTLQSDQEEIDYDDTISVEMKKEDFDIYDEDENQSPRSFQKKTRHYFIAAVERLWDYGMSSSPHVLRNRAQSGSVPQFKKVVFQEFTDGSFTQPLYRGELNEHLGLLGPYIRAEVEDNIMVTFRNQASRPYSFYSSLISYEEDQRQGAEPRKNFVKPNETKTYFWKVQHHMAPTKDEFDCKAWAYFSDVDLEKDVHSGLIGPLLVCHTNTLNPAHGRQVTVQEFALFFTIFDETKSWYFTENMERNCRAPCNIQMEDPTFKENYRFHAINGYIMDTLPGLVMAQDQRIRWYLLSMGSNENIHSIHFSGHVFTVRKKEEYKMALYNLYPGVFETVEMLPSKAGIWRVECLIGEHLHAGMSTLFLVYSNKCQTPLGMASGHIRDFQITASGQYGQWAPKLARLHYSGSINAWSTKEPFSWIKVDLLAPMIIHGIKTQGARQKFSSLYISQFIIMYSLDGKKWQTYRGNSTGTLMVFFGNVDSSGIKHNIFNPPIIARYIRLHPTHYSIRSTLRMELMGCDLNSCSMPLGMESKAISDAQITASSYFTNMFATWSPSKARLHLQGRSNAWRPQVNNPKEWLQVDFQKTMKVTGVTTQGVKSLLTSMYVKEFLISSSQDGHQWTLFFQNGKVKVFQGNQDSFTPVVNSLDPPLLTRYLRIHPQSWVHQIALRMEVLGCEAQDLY
From the text: as §1

F XI = molecular target: T3, F XI (Homo sapiens, UniProt P03951); experiment: Factor XI assay, Example 4; assay type: biochemical; conditions: for F XI: Control 117
T3 construct: from tissue; host or cells: human plasma
T3 sequence (P03951 19-625): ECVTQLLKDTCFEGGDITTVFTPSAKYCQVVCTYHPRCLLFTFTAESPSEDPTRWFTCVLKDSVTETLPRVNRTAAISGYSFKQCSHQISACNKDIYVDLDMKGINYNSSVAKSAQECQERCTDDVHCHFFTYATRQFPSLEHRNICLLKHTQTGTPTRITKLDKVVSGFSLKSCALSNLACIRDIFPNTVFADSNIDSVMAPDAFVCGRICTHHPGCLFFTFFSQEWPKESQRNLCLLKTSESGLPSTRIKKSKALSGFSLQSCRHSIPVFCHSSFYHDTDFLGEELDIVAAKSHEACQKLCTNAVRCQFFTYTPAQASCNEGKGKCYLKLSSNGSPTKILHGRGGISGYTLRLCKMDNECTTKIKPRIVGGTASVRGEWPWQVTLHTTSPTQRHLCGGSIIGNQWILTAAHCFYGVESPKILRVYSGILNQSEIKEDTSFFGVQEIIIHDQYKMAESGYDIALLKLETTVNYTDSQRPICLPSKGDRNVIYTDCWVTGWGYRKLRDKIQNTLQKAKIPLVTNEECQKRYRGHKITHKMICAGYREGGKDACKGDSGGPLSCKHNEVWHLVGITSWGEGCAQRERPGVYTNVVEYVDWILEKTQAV
From the text: as §1

F XII = molecular target: T4, F XII (Homo sapiens, UniProt P00748); experiment: Factor XII assay, Example 4; assay type: biochemical; conditions: for F XII: Control 86
T4 construct: from tissue; host or cells: human plasma
T4 sequence (P00748 20-615): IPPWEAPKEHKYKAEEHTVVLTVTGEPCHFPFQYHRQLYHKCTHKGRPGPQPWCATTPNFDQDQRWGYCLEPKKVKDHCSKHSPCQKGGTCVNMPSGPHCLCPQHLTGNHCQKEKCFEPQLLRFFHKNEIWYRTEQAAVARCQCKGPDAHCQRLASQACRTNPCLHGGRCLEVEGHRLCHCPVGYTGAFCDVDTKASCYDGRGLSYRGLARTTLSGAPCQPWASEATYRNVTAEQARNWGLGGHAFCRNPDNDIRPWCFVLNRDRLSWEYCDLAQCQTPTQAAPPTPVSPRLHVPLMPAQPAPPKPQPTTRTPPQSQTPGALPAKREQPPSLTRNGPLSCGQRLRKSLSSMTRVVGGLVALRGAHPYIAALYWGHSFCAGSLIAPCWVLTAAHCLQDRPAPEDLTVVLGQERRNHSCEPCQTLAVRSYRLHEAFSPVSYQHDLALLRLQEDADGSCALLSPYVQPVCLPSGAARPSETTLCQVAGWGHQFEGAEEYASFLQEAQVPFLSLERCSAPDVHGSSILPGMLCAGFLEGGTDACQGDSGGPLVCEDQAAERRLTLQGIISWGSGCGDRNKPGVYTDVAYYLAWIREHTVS
From the text: as §1

patients = experiment: Human use, case histories; assay type: in vivo
From the text: To evaluate the effect of sodium bisulphite in human use (this agent being known to be safe for human consumption), certain patients received this agent. The case history and observations are summarized individually below.
In each case, each patient was provided with a bottle of Solution D, unless otherwise noted, and was instructed to dose himself (or herself, as the case may be) from the bottle so provided at the rate of seven drops to be taken orally with each of his (her) three daily meals. When the contents of one such bottle were thus gradually consumed by an individual patient, another was provided.

[3] = Sodium bisulphite 0.01 mg/ml, solution D
[4] = Sodium bisulphite 0.05 mg/ml, solution D
[5] = Sodium bisulphite 0.1 mg/ml, solution D
[6] = Sodium bisulphite 0.5 mg/ml, solution D
[7] = Sodium bisulphite 1.0 mg/ml, solution D
[8] = Sodium bisulphite 5.0 mg/ml, solution D
[9] = chemical grade sodium bisulphite 0.01 mg/ml
[10] = chemical grade sodium bisulphite 0.05 mg/ml
[11] = chemical grade sodium bisulphite 0.1 mg/ml
[12] = chemical grade sodium bisulphite 0.5 mg/ml
[13] = chemical grade sodium bisulphite 1.0 mg/ml
[14] = chemical grade sodium bisulphite 5.0 mg/ml

Substance: Sodium bisulphite
- Platelet accumulation II. at normal vessel wall cpm/gm ([1]; rabbits A, B, per gram dry weight of tissue, Control 72,140± 39,040): 98,611 cpm/gm and 83,066 cpm/gm
- Platelet accumulation I. at damaged vessel wall cpm/gm ([1]; rabbits A, B, per gram dry weight of tissue, Control 1,167,820± 21,310): 133,986 cpm/gm and 146,630 cpm/gm
- Platelet accumulation II. at normal vessel wall % ([1]; rabbits A, B, percentage of injected radioactivity per gram dry weight, Control 0.03± 0.02): 0.08%
- Platelet accumulation I. at damaged vessel wall % ([1]; rabbits A, B, percentage of injected radioactivity per gram dry weight, Control 0.44± 0.08, 72.8 mg/kg): 0.11% and 0.15%
- reduction of accumulation of platelet thrombus at the damaged vessel wall ([1]; rabbits): 70%
- prolongation of PTT ([2]; 0.5 mg/ml, human, rabbit and rat plasma in vitro, dose-related): significantly prolong
- PTT (seconds) Exp. 1 A ([2]; Test sequence A): 128.2 s
- PTT (seconds) Exp. 2 A ([2]; Test sequence A): 121.9 s
- PTT (seconds) Exp. 1 A ([2]; Test sequence B): 128.2 s
- PTT (seconds) Exp. 2 A ([2]; Test sequence B): 162.6 s
- TT (human plasma; [3]): 12.07 s
- TT (human plasma; [4]): 12.10 s
- TT (human plasma; [5]): 12.00 s
- TT (human plasma; [6]): 13.97 s
- TT (human plasma; [7]): 16.08 s
- TT (human plasma; [8]): 34.3 s
- TT (human plasma; [9]): 12.20 s
- TT (human plasma; [10]): 12.30 s
- TT (human plasma; [11]): 12.15 s
- TT (human plasma; [12]): 14.53 s
- TT (human plasma; [13]): 16.23 s
- TT (human plasma; [14]): 35.5 s
- Factor V (Factor V; [3]): 74%
- Factor V (Factor V; [4]): 72%
- Factor V (Factor V; [5]): 80%
- Factor V (Factor V; [6]): 70%
- Factor V (Factor V; [7]): 60%
- Factor V (Factor V; [8]): 54%
- Factor V (Factor V; [9]): 70
- Factor V (Factor V; [10]): 68
- Factor V (Factor V; [11]): 68
- Factor V (Factor V; [12]): 64
- Factor V (Factor V; [13]): 66
- Factor V (Factor V; [14]): 60
- F VIII (F VIII; [3]): 62%
- F VIII (F VIII; [4]): 68%
- F VIII (F VIII; [5]): 55%
- F VIII (F VIII; [6]): 58%
- F VIII (F VIII; [7]): 29%
- F VIII (F VIII; [8]): 11%
- F VIII (F VIII; [9]): 58
- F VIII (F VIII; [10]): 55
- F VIII (F VIII; [11]): 56
- F VIII (F VIII; [12]): 55
- F VIII (F VIII; [13]): 31
- F VIII (F VIII; [14]): 13
- effect on Factor VIII (F VIII; human plasma): mildly affected
- effect on Factor XI (F XI; 0.5 mg per ml, human plasma): significant inhibitory effect
- F XI (F XI; [3]): 98%
- F XI (F XI; [4]): 81%
- F XI (F XI; [5]): 58%
- F XI (F XI; [6]): 27%
- F XI (F XI; [7]): 4%
- F XI (F XI; [8]): <1%
- F XI (F XI; [9]): 83
- F XI (F XI; [10]): 82
- F XI (F XI; [11]): 55
- F XI (F XI; [12]): 24
- F XI (F XI; [13]): 2
- F XI (F XI; [14]): <1
- effect on Factor XII (F XII; 0.5 mg per ml, human plasma): significant inhibitory effect
- F XII (F XII; [3]): 94%
- F XII (F XII; [4]): 87%
- F XII (F XII; [5]): 79%
- F XII (F XII; [6]): 17%
- F XII (F XII; [7]): 3%
- F XII (F XII; [8]): <1%
- F XII (F XII; [9]): 104
- F XII (F XII; [10]): 102
- F XII (F XII; [11]): 75
- F XII (F XII; [12]): 25
- F XII (F XII; [13]): 9
- F XII (F XII; [14]): <1
- Case IV: blood cholesterol value (patients; after about 5 years, before between 200 and 220 mg %): about 144 mg %
- Case IV: hypertension, arthritis, arrhythmia, haemorrhoids, dyspepsia, cyanotic fingers and toes, malaise (except diabetes) (patients; person, Solutions A, B, C or D orally, within 2-3 months): improved
